Values quoted from earlier work, collected in EP0700285B1, “A DRUG DELIVERY COMPOSITION FOR ALPHA-ADRENO RECEPTOR BLOCKING AGENTS” (SYNTHELABO, priority 1993, dated 1994).

COc1cc2nc(N(C)CCCNC(=O)C3CCCO3)nc(N)c2cc1OC (centres unmarked) [alfuzosin]
plasma elimination half life (mean) (after intravenous administration): 4.8 h
mean half life (after oral administration): 4.8 h
mean oral bioavailability (immediate release dosage form): 64%
parent compound excreted unchanged in the urine (in vivo): 11%
volume of distribution (in vivo): 2.5 L/kg
